Measured values from paper PMC9398908, “GLP-1-mediated delivery of tesaglitazar improves obesity and glucose metabolism in male mice” (Nature Metabolism, 2022).
Several values for one entry are separate records, joined by “and”; a condition that tells them apart may be missing. Equal values may be shown once.

Assays:
lean C57BL/6J mice = test: 14-day treatment of lean mice: body weight, plasma cholesterol, triglycerides, AST, ALT, heart weight (Fig. 2n–s); assay type: in vivo, mouse; set-up: Cholesterol / TAG: unit not given here
Method: Glp1r^−/− mice were kindly provided by D. Drucker (University of Toronto, Canada). All wildtype and knockout mice used in our studies were in-house bred on a C57BL/6J background. Mice were double-housed and kept in a constant environment with the ambient temperature set to 22 ± 2 °C with constant humidity (45–65%) and a 12 h/12 h light/dark cycle with lights off from 06:00 until 18:00. For studies in DIO mice, male C57BL/6J mice were fed with a high-fat diet comprising 58% kilocalories from fat (D12331, Research Diets). db/db mice were fed with a normal chow diet (T1314, Altromin GmbH) throughout the study. At the beginning of each experiment, mice were equally distributed into experimental groups according to their body weight and body composition. All animal studies were approved by the State of Bavaria, Germany, or the Insitutional Animal Care and Use Committee of the University of Cincinnati, OH, USA and conducted on the basis of the underlying animal welfare law of the respective countries. Compounds were dissolved in PBS and were s.c. administered with a volume of 5 μl g^−1 body weight in the indicated doses between 15:00 and 16:00.

hGLP-1R [1] = target: T1, hGLP-1R (Homo sapiens, UniProt P43220); test: Ligand-induced cAMP production (CAMYEL BRET sensor) in hGLP-1R+ HEK293T cells; assay type: cell-based; conditions: HEK293 cells transfected with human GLP-1R; dose response, Fig. 1b; in words
T1 construct: host or cells: HEK293T, transient transfection
Method: (§1) HEK293T cells (700,000 per well) were seeded in six-well plates and incubated to 70% confluency in DMEM (10% FBS, 1% Pen/Strep). Twenty-four hours following seeding, transient transfections were performed using Lipofectamine 2000 (catalogue no. 11668019, Invitrogen) according to the manufacturer’s protocol without including additional transformation carrier DNA.
(§2) Twenty-four hours following transfection, HEK293T cells or MIN6 cells were washed with PBS and resuspended in FluoroBrite phenol red-free complete media (catalogue no. A1896701, Life Technologies) containing 5% FBS and 2 mM of L-glutamine (catalogue no. 25030081, Life Technologies). 100,000 cells per well were plated into poly-D-lysine-coated (catalogue no. P6403, Sigma-Aldrich) 96-well white polystyrene LumiNunc plates (catalogue no. 10072151, Thermo Fisher Scientific). After 24 h, the media was replaced with PBS (catalogue no. 10010056, Gibco) containing 10 μM of coelenterazine-h (catalogue no. S2011, Promega) or 1:500 dilution of NanoGlo (catalogue no. N1110, Promega). BRET measurements were taken every 30 s–2 min using a PHERAstar FS multi-mode microplate reader. […] The resulting ligand-specific ratiometric BRET signals were normalized to vehicle producing the ‘ligand-induced BRET ratio’[37], followed by an additional normalization step to well-specific baseline readings.

hGLP-1R [2] = target: T1, hGLP-1R; test: Ligand-induced hGLP-1R-Rluc8 internalization (loss of BRET with Venus-KRAS) in HEK293T cells; assay type: cell-based; conditions: HEK293 cells transfected with human GLP-1R; dose response, Fig. 1c; in words
Method: as §1, §2

T1 sequence (P43220 24-463): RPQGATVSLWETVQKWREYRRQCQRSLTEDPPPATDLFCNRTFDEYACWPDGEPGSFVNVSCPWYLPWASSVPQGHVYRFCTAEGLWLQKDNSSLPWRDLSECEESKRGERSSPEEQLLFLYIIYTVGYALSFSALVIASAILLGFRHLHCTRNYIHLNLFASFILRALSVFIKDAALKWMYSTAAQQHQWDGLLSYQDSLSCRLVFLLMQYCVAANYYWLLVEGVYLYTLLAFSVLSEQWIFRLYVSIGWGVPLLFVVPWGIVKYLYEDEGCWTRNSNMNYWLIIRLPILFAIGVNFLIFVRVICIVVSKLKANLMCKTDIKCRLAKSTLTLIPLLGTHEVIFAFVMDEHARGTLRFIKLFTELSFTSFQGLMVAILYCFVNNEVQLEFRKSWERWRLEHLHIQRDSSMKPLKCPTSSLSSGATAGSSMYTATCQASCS

**Q.** `CCO[C@@H](Cc1ccc(OCCc2ccc(OS(C)(=O)=O)cc2)cc1)C(=O)O` [tesaglitazar, (S)-2-ethoxy-3-(4-(4-((methylsulfonyl)oxy)phenethoxy)phenyl) propanoic acid] was tested. Which “Heart weight/Tibia” value (lean C57BL/6J mice; 14-day treatment, individual animals (Fig. 2s)) did it give?
**A.** 88.25 and 101.20 and 133.32 and 102.79 and 98.68 and 111.28 and 98.00 and 103.11

**Q.** And the plasma cholesterol levels (lean C57BL/6J mice; 14 days, 50 nmol kg−1 per day, Fig. 2o, in words)?
**A.** reduced plasma cholesterol levels

**Q.** And the TAG (lean C57BL/6J mice; plasma triglycerides, 14-day treatment, individual animals (Fig. 2p))?
**A.** 28.51 and 67.33 and 61.82 and 37.82 and 28.64 and 34.88 and 35.62 and 62.31

**Q.** And the Cholesterol (lean C57BL/6J mice; plasma, 14-day treatment, individual animals (Fig. 2o))?
**A.** 68.85 and 109.93 and 69.31 and 90.92 and 65.38 and 84.58 and 89.99 and 80.51

**Q.** And the ALT (lean C57BL/6J mice; plasma, 14-day treatment, individual animals (Fig. 2q), in U/L (unit assumed))?
**A.** 7.51 and 24.40 and 11.85 and 4.07 and 8.93 and 10.70 and 5.04 and 14.23

**Q.** And the AST (lean C57BL/6J mice; plasma, 14-day treatment, individual animals (Fig. 2r), in U/L (unit assumed))?
**A.** 11.14 and 10.87 and 31.82 and 15.56 and 14.94 and 16.00 and 16.09 and 19.09

**Q.** And the cAMP production (hGLP-1R [1])?
**A.** had no effect

**Q.** And the GLP-1R internalization (hGLP-1R [2])?
**A.** had no effect
